Results on 14 compounds are retold here after US20260166039A1 (SCHRÖDINGER, INC., priority 2022, published 2026).

Structures are written as SMILES. pIC50: −log10 of the molar value.

T1 sequence (P30291 299-569 limits assumed): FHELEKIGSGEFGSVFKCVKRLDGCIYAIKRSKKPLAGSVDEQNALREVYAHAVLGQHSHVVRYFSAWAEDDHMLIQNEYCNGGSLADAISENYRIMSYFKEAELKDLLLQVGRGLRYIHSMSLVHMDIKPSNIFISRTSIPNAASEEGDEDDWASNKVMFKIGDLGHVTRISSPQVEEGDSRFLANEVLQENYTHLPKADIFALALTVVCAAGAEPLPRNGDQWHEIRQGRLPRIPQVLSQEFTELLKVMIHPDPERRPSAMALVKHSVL

The first assay addresses T1, Wee1 kinase domain (Homo sapiens, UniProt P30291).
T1 construct: Wee1 kinase domain was purchased from Carna (catalog #05-177); purchased Carna 05-177
Description: Wee1 Kinase Biochemical Assay (ADP-Glo). The conditions noted are these: 1 nM Wee1 enzyme, 15 uM ATP, 4 hours at 25° C. Put shortly: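 ADP-Glo luminescence readout of ADP produced by 1 nM kinase domain phosphorylating Poly(Lys,Tyr 4:1) (2 ng/mL) at 15 uM ATP. Reaction ran 4 h, 25 °C, in Tris/MgCl2 buffer with BSA and DTT. Inhibition scaled between DMSO (high) and saturating control inhibitor (low).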
(In ADP-Glo the light output rises with the ADP produced.)
Compound `CN1CCCC12CCN(c1ccc(Nc3ncc4c(n3)N(c3ccccn3)[C@@H]3CC(C)(C)OC[C@]43C)cc1)CC2` (single isomer, unassigned) [Example 823] showed a negative-log IC50 (pIC50) of more than 8.00.

The assay is the same for the next values; noted with them: Wee1 kinase domain, 15 uM ATP, ADP-Glo.
`C[C@H]1COC(=O)N1c1cccc(N2c3nc(Nc4ccc(O[C@@H]5CCNC5)cc4)ncc3[C@]3(C)COC(C)(C)C[C@H]23)n1` (single isomer, unassigned) [Example 326] showed a pIC50 of 7.00 to 8.00. Same read-out and setting: under `CC1(C)C[C@@H]2N(c3cccc(N=S(C)(C)=O)n3)c3nc(Nc4ccc(O[C@H]5CCNC5)cc4)ncc3[C@]2(C)CO1` (single isomer, unassigned) [Example 154] stands 6.00 to 7.00; under `CNCc1cccc(N2c3nc(Nc4ccc([C@H]5CCC(=O)N5C)cc4)ncc3[C@]3(C)COC(C)(C)C[C@H]23)n1` (single isomer, unassigned) [Example 53], not above 6.00. `Cc1cc(Nc2ncc3c(n2)N(c2cccc(N=S(C)(C)=O)n2)[C@H]2CC(C)(C)OC[C@@]32C)ccc1[C@@H]1COCCN1` (single isomer, unassigned) [Example 113] gave a pIC50 of 7.00 to 8.00. `CC1(C)C[C@H]2N(c3cccc(N=S(C)(C)=O)n3)c3nc(Nc4cn5ccnc5cn4)ncc3[C@@]2(C)CO1` (single isomer, unassigned) [Example 382] showed a pIC50 of 7.00 to 8.00. Same read-out and setting: under `C[C@H]1COC(=O)N1c1cccc(N2c3nc(Nc4ccc(N5CCN(C)CC5=O)cc4)ncc3[C@]3(C)COC(C)(C)C[C@H]23)n1` (single isomer, unassigned) [Example 270] stands 7.00 to 8.00; under `CN1CC[C@H](n2cc(Nc3ncc4c(n3)N(c3cccc(N=S(C)(C)=O)n3)[C@H]3CC(C)(C)OC[C@@]43C)cn2)C1` (single isomer, unassigned) [Example 197], 6.00 to 7.00. Still for that read-out and setting: in the case of `C[C@H]1COC(=O)N1c1cccc(N2c3nc(Nc4ccc([C@H]5CCNC5)nc4)ncc3[C@]3(C)COC(C)(C)C[C@H]23)n1` (single isomer, unassigned) [Example 258] it was 6.00 to 7.00.

Staying with this assay, now noted: class symbols; 1 nM Wee1 enzyme, 15 uM ATP, 4 hours at 25° C.
For the compound `CN1C[C@@H]2C[C@H]1CN2c1ccc(Nc2ncc3c(n2)N(c2cccc(N4CCCC4=O)n2)[C@H]2CC(C)(C)OC[C@@]32C)cc1` [Example 628, 1-(6-((4bS,8aS)-4b,7,7-trimethyl-2-((4-((1S,4S)-5-methyl-2,5-diazabicyclo[2.2.1]heptan-2-yl)phenyl)amino)-4b,7,8,8a-tetrahydropyrano[3′,4′:4,5]pyrrolo[2,3-d]pyrimidin-9(5H)-yl)pyridin-2-yl)pyrrolidin-2-one], the pIC50 is 6.00 to 7.00.

With `CN1C[C@@H]2C[C@H]1CN2c1ccc(Nc2ncc3c(n2)N(c2cccc(N4CCOC4=O)n2)[C@H]2CC(C)(C)OC[C@@]32C)cc1` (single isomer, unassigned) [Example 594], the pIC50 was 6.00 to 7.00.

As for `CC1(C)C[C@@H]2N(c3cccc(N4CCOC4=O)n3)c3nc(Nc4ccc(O[C@H]5CCNC5)cc4)ncc3[C@]2(C)CO1` [Example 612, 3-(6-((4bS,8aS)-4b,7,7-trimethyl-2-((4-(((S)-pyrrolidin-3-yl)oxy)phenyl)amino)-4b,7,8,8a-tetrahydropyrano[3′,4′:4,5]pyrrolo[2,3-d]pyrimidin-9(5H)-yl)pyridin-2-yl)oxazolidin-2-one], the negative-log IC50 (pIC50) was 6.00 to 7.00. Still for that read-out and setting: under `CN[C@@H](C)c1cccc(N2c3nc(Nc4ccc(N5C[C@H]6C[C@@H]5CO6)cc4)ncc3[C@]3(C)COC(C)(C)C[C@H]23)n1` (single isomer, unassigned) [Example 578] stands 6.00 to 7.00; under `Cn1ccc(Nc2ncc3c(n2)N(c2cccc(N=S(C)(C)=O)n2)[C@@H]2CC(C)(C)OC[C@]32C)n1` (single isomer, unassigned) [Example 513], more than 8.00.

The pIC50 is the negative decadic logarithm of the IC50, by convention in mol/L. Low readings indicate a high IC50, high ones a low IC50.
